Measurements taken from ChEMBL document CHEMBL5528002, “Identification of selective 5-LOX and FLAP inhibitors as novel anti-inflammatory agents by ligand-based virtual screening” (Eur J Med Chem, 2024).
Activity calls are given as the source filed them. The calls are words filed in the database; no cut-off is given here.

What was measured:
[1] = target: T1, Prostaglandin E synthase (Homo sapiens) (UniProt O14684); test: Inhibition of human mPGES-1 at 10 uM relative to control
T1 sequence (whole entry): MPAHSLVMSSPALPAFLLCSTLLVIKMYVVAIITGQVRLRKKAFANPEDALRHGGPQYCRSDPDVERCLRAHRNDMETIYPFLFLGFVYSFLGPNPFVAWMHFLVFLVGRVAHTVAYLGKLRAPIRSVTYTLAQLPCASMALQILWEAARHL

[2] = target: T2, Bifunctional epoxide hydrolase 2 (Homo sapiens) (UniProt P34913); test: Inhibition of human sEH at 10 uM relative to control
T2 sequence (whole entry): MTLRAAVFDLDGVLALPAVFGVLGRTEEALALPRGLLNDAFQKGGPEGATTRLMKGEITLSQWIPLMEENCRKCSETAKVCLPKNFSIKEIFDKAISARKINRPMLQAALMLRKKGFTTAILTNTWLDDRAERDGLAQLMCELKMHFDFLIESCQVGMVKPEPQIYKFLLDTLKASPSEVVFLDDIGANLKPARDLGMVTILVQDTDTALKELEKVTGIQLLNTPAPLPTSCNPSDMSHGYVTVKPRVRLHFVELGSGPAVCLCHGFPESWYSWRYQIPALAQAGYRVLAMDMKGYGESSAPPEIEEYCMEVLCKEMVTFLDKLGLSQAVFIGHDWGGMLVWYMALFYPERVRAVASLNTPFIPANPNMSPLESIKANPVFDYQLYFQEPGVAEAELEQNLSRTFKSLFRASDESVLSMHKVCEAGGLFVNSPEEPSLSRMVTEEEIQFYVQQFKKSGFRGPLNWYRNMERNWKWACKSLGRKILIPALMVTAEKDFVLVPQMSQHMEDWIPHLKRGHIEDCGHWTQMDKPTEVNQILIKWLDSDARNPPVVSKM

[3] = target: T3, Polyunsaturated fatty acid 5-lipoxygenase (Homo sapiens) (UniProt P09917); test: (§1) Inhibition of 5-LOX in human Neutrophil assessed as enzyme remaining activity at 10 uM using arachidonic acid as substrate preincubated with compound for 15 mins followed by substrate and A23187 addition measured after 10 mins by RP-HPLC analysis relative to control; type: cell-based; settings: time 25.0 min
T3 sequence (whole entry): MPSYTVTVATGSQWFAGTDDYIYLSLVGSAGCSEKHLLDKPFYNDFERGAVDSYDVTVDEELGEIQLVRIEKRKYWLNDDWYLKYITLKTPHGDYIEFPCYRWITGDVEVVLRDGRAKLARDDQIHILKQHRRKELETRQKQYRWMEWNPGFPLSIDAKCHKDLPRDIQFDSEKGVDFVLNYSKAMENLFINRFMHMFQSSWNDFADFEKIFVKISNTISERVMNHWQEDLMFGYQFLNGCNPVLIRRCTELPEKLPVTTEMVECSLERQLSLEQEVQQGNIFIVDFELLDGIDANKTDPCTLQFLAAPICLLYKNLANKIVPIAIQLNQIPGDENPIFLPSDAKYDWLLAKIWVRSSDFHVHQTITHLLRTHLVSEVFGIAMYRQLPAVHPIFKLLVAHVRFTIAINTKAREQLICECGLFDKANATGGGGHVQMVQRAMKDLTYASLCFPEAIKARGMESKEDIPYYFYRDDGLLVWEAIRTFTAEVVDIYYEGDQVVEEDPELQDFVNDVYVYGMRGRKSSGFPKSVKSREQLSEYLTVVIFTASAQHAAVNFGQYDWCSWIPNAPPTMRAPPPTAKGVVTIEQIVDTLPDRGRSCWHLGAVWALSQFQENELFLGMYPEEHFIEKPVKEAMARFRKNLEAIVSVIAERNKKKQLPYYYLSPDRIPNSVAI

[4] = target: T3, Polyunsaturated fatty acid 5-lipoxygenase (Homo sapiens); test: Inhibition of 5-LOX in human Neutrophil at 10 uM preincubated with compound for 15 mins followed by A23187 addition measured after 10 mins by RP-HPLC analysis relative to control; type: cell-based; settings: time 25.0 min
[5] = target: T3, Polyunsaturated fatty acid 5-lipoxygenase (Homo sapiens); test: Inhibition of 5-LOX in human Neutrophil at 10 uM using arachidonic acid as substrate preincubated with compound for 15 mins followed by substrate and A23187 addition measured after 10 mins by RP-HPLC analysis relative to control; type: cell-based; settings: time 25.0 min
[6] = target: T2, Bifunctional epoxide hydrolase 2 (Homo sapiens); test: Inhibition of human sEH assessed as enzyme remaining activity at 10 uM relative to control
[7] = target: T3, Polyunsaturated fatty acid 5-lipoxygenase (Homo sapiens); test: Inhibition of 5-LOX in human Neutrophil assessed as enzyme remaining activity at 10 uM preincubated with compound for 15 mins followed by A23187 addition measured after 10 mins by RP-HPLC analysis relative to control; type: cell-based; settings: time 25.0 min
[8] = target: T1, Prostaglandin E synthase (Homo sapiens); test: Inhibition of human mPGES-1 assessed as enzyme remaining activity at 10 uM relative to control
[9] = target: T3, Polyunsaturated fatty acid 5-lipoxygenase (Homo sapiens); test: as §1, with “of human recombinant” for “of”, “5-LOX expressed” for “5-LOX”, “Escherichia coli BL21(DE3)” for “human Neutrophil”, “CaCl2” for “A23187”; settings: time 25.0 min
[10] = target: T3, Polyunsaturated fatty acid 5-lipoxygenase (Homo sapiens); test: Inhibition of 5-LOX in human Neutrophil assessed as enzyme remaining activity at 30 nM using arachidonic acid as substrate preincubated with compound for 15 mins followed by substrate and A23187 addition measured after 10 mins by RP-HPLC analysis relative to control; type: cell-based; settings: time 25.0 min
[11] = target: T3, Polyunsaturated fatty acid 5-lipoxygenase (Homo sapiens); test: Inhibition of 5-LOX in human Neutrophil assessed as enzyme remaining activity at 30 nM preincubated with compound for 15 mins followed by A23187 addition measured after 10 mins by RP-HPLC analysis relative to control; type: cell-based; settings: time 25.0 min
[12] = target: T4, Polyunsaturated fatty acid 5-lipoxygenase (Homo sapiens, UniProt P09917); test: Inhibition of 5-LOX in human Neutrophil using arachidonic acid as substrate preincubated with compound for 15 mins followed by substrate and A23187 addition measured after 10 mins by RP-HPLC analysis; type: cell-based
T4 sequence (P09917 whole entry): T3 sequence (whole entry)

Neutrophil [13] = test: Inhibition of ROS production in PMA-induced human Neutrophil cells at 1 uM incubated for 10 mins by DCFH-DA dye based fluorometric assay; type: functional, cell-based
[14] = Antioxidant activity assessed as DPPH radical scavenging activity at 1 uM incubated for 30 min by DPPH assay; type: functional
Neutrophil [15] = test: Inhibition of ROS production in PMA-induced human Neutrophil cells at 10 uM incubated for 10 mins by DCFH-DA dye based fluorometric assay; type: functional, cell-based
[16] = target: T4, Polyunsaturated fatty acid 5-lipoxygenase; test: Inhibition of human recombinant 5-LOX expressed in Escherichia coli BL21(DE3) using arachidonic acid as substrate preincubated with compound for 15 mins followed by substrate and CaCl2 addition measured after 10 mins by RP-HPLC analysis
[17] = Antioxidant activity assessed as DPPH radical scavenging activity at 10 uM incubated for 30 min by DPPH assay; type: functional

Row | SMILES | inhibition [1] | inhibition [2] | Activity [3] | inhibition [4] | inhibition [5] | Activity [6] | Activity [7] | Activity [8] | Activity [9] | Activity [10] | Activity [11] | IC50 [12] | inhibition (Neutrophil [13]) | Activity [14] | inhibition (Neutrophil [15]) | IC50 [16] | Activity [17]
1 | O=C1Nc2ccccc2/C1=N\CCc1c[nH]c2ccccc12 | > 50% | > 35% | 42.8% | inactive | Active | 92.8% | 73.5% | 30.4% | 69.1% | – | – | – | – | – | – | – | –
2 | CC(C)c1ccc2c(c1)c(SC(C)(C)C)c(CC(C)(C)C(=O)O)n2Cc1ccc(Cl)cc1 | – | – | – | – | – | – | – | 45.8% | – | 7.8% | 1.5% | – | – | – | – | – | –
3 | N=C1OC(c2c[nH]c3ccc(OCc4ccccc4)cc23)C(O)=C1O (configuration not stated) | < 40% | > 35% | 92.3% | 37% | inactive | 86.7% | 56.1% | 56.8% | 95% | – | – | – | – | – | – | – | –
4 | Oc1nc(Cc2ccc3ccccc3n2)cc(-c2ccccc2)n1 | inactive | > 35% | 111% | 37% | inactive | 91.6% | 53.9% | 55.8% | 68.1% | – | – | – | – | – | – | – | –
5 | COC(=O)c1ccc(NCc2cc(O)c3ccccc3c2O)cc1 | < 40% | > 35% | 1.9% | > 50% | > 50% | 84.4% | 3.3% | 50.4% | 6.1% | – | – | 1000 nM | inactive | inactive | Active | 1100 nM | Active
6 | Nc1nc(N)c2cc([S+]([O-])c3ccc4ccccc4c3)ccc2n1 (configuration not stated) | inactive | > 35% | 82.1% | 37% | inactive | 93.9% | 62% | 88.3% | 94.6% | – | – | – | – | – | – | – | –
7 | CC(=O)NC(CCc1ccc(Cl)c(Cl)c1)c1cccc(O)c(=O)c1 (configuration not stated) | inactive | > 35% | 49.5% | > 50% | > 50% | 66.2% | 34.5% | 102% | 5.3% | – | – | – | inactive | inactive | inactive | – | inactive
8 | O=C1NC(=O)C(CCC(=O)c2ccc3ccccc3c2)C(=O)N1 | inactive | > 35% | 94.8% | 37% | inactive | 83.3% | 63.3% | 77.5% | 86.1% | – | – | – | – | – | – | – | –
9 | O=C1N=C(Nc2nc3ccccc3[nH]2)OC1c1ccccc1 (configuration not stated) | inactive | > 35% | 102% | inactive | – | 99.9% | 121% | 83.6% | 94.4% | – | – | – | – | – | – | – | –
10 | Cn1c(=O)c2nc(CCCc3nc4ccccc4[nH]3)[nH]c2n(C)c1=O | inactive | > 35% | 98.3% | inactive | – | 92.7% | 113% | 90.9% | 98.5% | – | – | – | – | – | – | – | –
